# Patent US11999727B2 (Tango Therapeutics, Inc., priority 2020, dated 2024)
# Structures can show the parent of a compound that is named as a salt. Where two headings read alike, the source gives them in different places.
# Experiments:
# [1] = test system: HAP1 MTAP-intact cell line; test: SDMA in-cell western assay, HAP1 MTAP-intact; type: cell-based; conditions: Homo sapiens
# Text: (§1) Table 1 also indicates IC50 values in an MTAP-isogenic cell line pair for exemplary compounds in an SDMA in-cell western assay (columns 7-8). HAP1 MTAP-intact is a cell line in which endogenous levels of MTAP are expressed, and HAP1 MTAP-deleted is an MTAP-null cell line.
# [2] = test system: HAP1 MTAP-deleted cell line; test: SDMA in-cell western assay, HAP1 MTAP-deleted; type: cell-based; conditions: for IC50: Homo sapiens; for MTAP intact/deleted ratio: IC50 ratio HAP1 MTAP-intact / HAP1 MTAP-deleted, SDMA in-cell western
# Text: as §1
# [3] = test system: HAP1 MTAP-deleted cell line; test: Viability assay, MTAP-deleted cell line; type: cell-based; conditions: Homo sapiens
# Text: Table 1 additionally indicates IC50 values in a viability assay for the MTAP-deleted cell line (column 10), indicating the effect of treatment with compound on cell survival.
# [4] = molecular target: T1, PRMT5 (Homo sapiens, UniProt O14744); test: PRMT5 biochemical IC50 assay with MTA as cofactor; conditions: PRMT5, MTA as cofactor; read-out: MTA IC50
# T1 construct: purchased Viva (custom protein)
# [5] = molecular target: T1, PRMT5; test: PRMT5 biochemical IC50 assay with no cofactor; conditions: PRMT5, no cofactor
# Text: Table 1 indicates IC50 values (μM) against PRMT5 for exemplary compounds in the presence of SAM as cofactor, with no cofactor, and with MTA as cofactor, respectively (columns 4-6). […] Ki values can be calculated from the IC50 values as described in the Examples section. As detailed in the Examples section, for the assay performed in the presence of SAM, IC50=Ki×1.5 (Ki=IC50/1.5).
# [6] = molecular target: T1, PRMT5; test: PRMT5 biochemical IC50 assay with SAM as cofactor; conditions: PRMT5, SAM as cofactor; read-out: SAM IC50
# [7] = HAP1, read-out: MTAP HAP1 intact IC50
# [8] = HAP1, read-out: HAP1 MTAP deleted IC50
# [9] = HAP1, read-out: HAP1 MTAP deleted viability
# [10] = HAP1, SDMA in-cell western, HAP1 MTAP-deleted, read-out: HAP 1 MTAP deleted IC50
# [11] = HAP1, viability assay, MTAP-deleted cell line, read-out: HAP1 MTAP deleted viability
# T1 sequence (O14744 whole entry): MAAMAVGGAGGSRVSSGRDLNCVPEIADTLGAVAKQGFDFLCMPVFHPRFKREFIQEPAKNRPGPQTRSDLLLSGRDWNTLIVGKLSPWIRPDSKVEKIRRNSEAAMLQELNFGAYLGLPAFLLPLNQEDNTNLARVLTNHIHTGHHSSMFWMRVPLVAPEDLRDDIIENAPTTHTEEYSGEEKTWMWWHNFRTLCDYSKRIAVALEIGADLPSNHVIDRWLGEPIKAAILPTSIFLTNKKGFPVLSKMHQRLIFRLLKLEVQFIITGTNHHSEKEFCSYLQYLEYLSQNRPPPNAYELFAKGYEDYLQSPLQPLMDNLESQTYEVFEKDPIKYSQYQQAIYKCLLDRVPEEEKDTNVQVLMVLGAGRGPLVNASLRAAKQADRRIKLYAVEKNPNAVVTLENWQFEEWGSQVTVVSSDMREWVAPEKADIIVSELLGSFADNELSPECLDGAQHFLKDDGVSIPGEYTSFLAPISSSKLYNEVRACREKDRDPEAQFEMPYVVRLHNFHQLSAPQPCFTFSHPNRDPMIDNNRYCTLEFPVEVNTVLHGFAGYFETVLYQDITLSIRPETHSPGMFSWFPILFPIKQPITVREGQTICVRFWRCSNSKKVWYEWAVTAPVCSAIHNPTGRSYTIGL
# T1 sequence (Q9BQA1 whole entry partner): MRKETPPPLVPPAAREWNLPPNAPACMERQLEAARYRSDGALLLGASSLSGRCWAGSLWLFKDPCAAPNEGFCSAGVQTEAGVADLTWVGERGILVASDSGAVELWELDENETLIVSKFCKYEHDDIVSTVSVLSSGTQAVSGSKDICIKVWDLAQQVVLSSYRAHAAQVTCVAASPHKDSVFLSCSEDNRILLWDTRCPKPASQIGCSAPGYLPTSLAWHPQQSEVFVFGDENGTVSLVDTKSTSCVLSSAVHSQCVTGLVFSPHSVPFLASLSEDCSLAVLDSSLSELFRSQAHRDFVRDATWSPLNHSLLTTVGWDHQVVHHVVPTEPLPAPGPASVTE
IC50 [4] [nM],IC50 ([5]; read-out: No Cofactor/rel IC50) [nM],IC50 [6] [nM],Structure (SMILES),"IC50 [1, 7] [nM]","IC50 [2, 8] [nM]","IC50 [3, 11] [µM]",other results
,,,"Cc1cc(NC(=O)C(=O)N2CC(C)CCC2c2ccccc2)cnc1N (mixture of isomers) [Compound 27, N-(6-Amino-5-methyl-3-pyridyl)-2-(5-methyl-2-phenyl-1-piperidyl)-2-oxo-acetamide]",> 1000,< 100,,"IC50 [3, 9]: 1 to 10 µM"
,,,"Cc1cncc(NC(=O)C(=O)N2[C@H](c3ccccc3)CC[C@@H](C)[C@@H]2C)c1 (racemic) [Compound 23, rac-2-[(2S,3R,6S)-2,3-dimethyl-6-phenyl-1-piperidyl]-N-(5-methyl-3-pyridyl)-2-oxo-acetamide]",> 1000,> 1000,,"IC50 [3, 9]: > 10 µM"
,,,"Cc1cc(NC(=O)C(=O)N2C[C@H](C)CC[C@H]2c2ccc(O)cc2)cnc1N (racemic) [Compound 164, rac-N-(6-amino-5-methylpyridin-3-yl)-2-((2R,5S)-2-(4-hydroxyphenyl)-5-methylpiperidin-1-yl)-2-oxoacetamide]",100 to 1000,< 100,,"IC50 [3, 9]: < 1 µM"
,,,"Cc1cc(NC(=O)C(=O)N2C[C@H](C)CC[C@H]2c2ccc3c(c2)CC(=O)N3)cnc1N (racemic) [Compound 373, N-(6-amino-5-methyl-3-pyridyl)-2-[5-methyl-2-(2-oxoindolin-5-yl)-1-piperidyl]-2-oxo-acetamide]",100 to 1000,< 100,,"IC50 [3, 9]: < 1 µM"
,,,"Cc1cc(NC(=O)C(=O)N2C[C@H](C)CC[C@@H]2c2ccc(-c3ccn[nH]3)s2)cnc1N (racemic) [Compound 577, N-(6-amino-5-methyl-3-pyridyl)-2-[(2R,5R)-5-methyl-2-[5-(1H-pyrazol-5-yl)-2-thienyl]-1-piperidyl]-2-oxo-acetamide]",,,,"IC50 ([1]; HAP1, SDMA in-cell western, HAP1 MTAP-intact, read-out: MTAP HAP1 intact IC50): > 1000 nM; IC50 [2, 10]: > 1000 nM; MTAP intact/deleted ratio [2]: B (an IC50 ratio greater than or equal to 3 fold but lower than 10 fold)"
,,,"Cc1cc(NC(=O)C(=O)N2C[C@H](C)CC[C@@H]2c2ccc3c(c2)CCC(=O)N3)cnc1N (racemic) [Compound 583, N-(6-Amino-5-methyl-3-pyridyl)-2-[(2R,5R)-5-methyl-2-(2-oxo-3,4-dihydro-1H-quinolin-6-yl)-1-piperidyl]-2-oxo-acetamide]",< 100,< 100,,"IC50 [3, 9]: < 1 µM"
,,,"Cc1cc(NC(=O)C(=O)N2C[C@H](C)CC[C@H]2c2ccc3cnccc3c2)cnc1N (racemic) [Compound 758, N-(6-Amino-5-methyl-3-pyridyl)-2-[2-(6-isoquinolyl)-5-methyl-1-piperidyl]-2-oxo-acetamide]",100 to 1000,< 100,,"IC50 [3, 9]: < 1 µM"
,,,"[2H][C@]1(c2ccc(F)cc2)CC[C@H](C)CN1C(=O)C(=O)Nc1cnc(N)c(C)c1 (racemic) [Compound 1009, N-(6-amino-5-methylpyridin-3-yl)-2-(2-(4-fluorophenyl)-5-methylpiperidin-1-yl-2-d)-2-oxoacetamide hydrochloride]",100 to 1000,< 100,,"IC50 [3, 9]: 1 to 10 µM"
,,,"C[C@@H]1CC[C@H](c2ccccc2)N(C(=O)C(=O)Nc2cncc(C(N)=O)c2)C1 (single isomer, unassigned) [Compound 75]",> 1000,> 1000,,
,,,"C[C@@H]1CC[C@@H](c2ccc3c(c2)CC(=O)N3)N(C(=O)C(=O)Nc2cncc(C(N)=O)c2)C1 (single isomer, unassigned) [Compound 325]",> 1000,> 1000,,
> 500,> 500,> 500,"Cc1cc(NC(=O)C(=O)N2C[C@@H](C)CC[C@@H]2c2ccncc2)cnc1N (single isomer, unassigned) [Compound 609]",,,,"IC50 [2, 10]: > 1000 nM; MTAP intact/deleted ratio [2]: C (an IC50 ratio of less than 3 fold); IC50 ([3]; HAP1, viability IC50, MTAP-deleted cell line, read-out: HAP1 MTAP deleted viability): > 10 µM"
> 500,> 500,> 500,"COc1ncc(NC(=O)C(=O)N2C[C@@H](C)CC[C@@H]2c2ccc(NS(C)(=O)=O)nc2)cc1C(N)=O (single isomer, unassigned) [Compound 999]",,,> 10,
> 500,> 500,> 500,"C[C@@H]1CC[C@@H](c2ccc3sc(N)nc3c2)N(C(=O)C(=O)Nc2cncc(C(N)=O)c2)C1 (single isomer, unassigned) [Compound 1001]",,,> 10,
> 500,> 500,> 500,"Cc1cc(NC(=O)C(=O)N2C[C@@H](C)CC[C@@H]2c2ccc3cc[nH]c(=O)c3c2)cnc1N (single isomer, unassigned) [Compound 1021]",,,> 10,
< 50,< 50,50 to 500,"CCc1cc(NC(=O)C(=O)N2C[C@@H](C)CC[C@@H]2c2ccc3sc(C(F)(F)F)nc3c2)cnc1N (single isomer, unassigned) [Compound 1022]",,,< 1,
> 500,> 500,> 500,"CCc1cc(NC(=O)C(=O)N2C[C@H](C)CC[C@H]2c2ccc3sc(C(F)(F)F)nc3c2)cnc1N (single isomer, unassigned) [Compound 1027]",,,> 10,
> 500,> 500,> 500,"COc1ncc(NC(=O)C(=O)N2C[C@H](C)CC[C@H]2c2ccc3sc(C(F)(F)F)nc3c2)cc1C(N)=O (single isomer, unassigned) [Compound 1030]",,,> 10,
< 50,< 50,< 50,"Cc1cc(NC(=O)C(=O)N2C[C@H](C)CC[C@H]2c2ccc3cc[nH]c(=O)c3c2)cnc1N (single isomer, unassigned) [Compound 1031]",,,< 1,
> 500,> 500,> 500,"Cc1cc(NC(=O)C(=O)N2C[C@@H](C)C(F)(F)C[C@@H]2c2cccc3[nH]ncc23)cnc1N (single isomer, unassigned) [Compound 1034]",,,> 10,
< 50,50 to 500,50 to 500,"Cc1cc(NC(=O)C(=O)N2C[C@H](C)CC[C@H]2c2cccc3[nH]ccc23)cnc1N (single isomer, unassigned) [Compound 1035]",,,< 1,
> 500,> 500,> 500,"Cc1cc(NC(=O)C(=O)N2C[C@@H](C)CC[C@@H]2c2cccc3[nH]ccc23)cnc1N (single isomer, unassigned) [Compound 1038]",,,> 10,
< 50,< 50,50 to 500,"Cc1cc(NC(=O)C(=O)N2C[C@H](C)C(F)(F)C[C@H]2c2cccc3[nH]ncc23)cnc1N (single isomer, unassigned) [Compound 1041]",,,< 1,
> 500,> 500,> 500,"C[C@H]1CC[C@H](c2ccc(NCC(=O)N(C)C)cc2)N(C(=O)C(=O)Nc2cncc(C(N)=O)c2)C1 (single isomer, unassigned) [Compound 1082]",,,> 10,
50 to 500,> 500,> 500,"C[C@@H]1CC[C@@H](c2cccc(Cl)c2)N(C(=O)C(=O)Nc2cnc(N)c(C3CC3)c2)C1 (single isomer, unassigned) [Compound 1169]",,,> 10,
> 500,> 500,> 500,"COc1ncc(NC(=O)C(=O)N2C[C@H](C)CC[C@H]2c2ccc3sc(CCN(C)C)nc3c2)cc1C(N)=O (single isomer, unassigned) [Compound 1197]",,,1 to 10,
,,,"Cc1cncc(NC(=O)C(=O)N2CC(C)CCC2c2ccccc2)c1 (centres unmarked) [Compound 1, 2-(5-methyl-2-phenylpiperidin-1-yl)-N-(5-methylpyridin-3-yl)-2-oxoacetamide]",> 1000,> 1000,,
50 to 500,,50 to 500,"NC(=O)c1cncc(NC(=O)C(=O)N2CCCCC2C2CCCC2O)c1 (centres unmarked) [Compound 169, 5-{2-[2-(2-Hydroxycyclopentyl)piperidin-1-yl]-2-oxoacetamido}pyridine-3-carboxamide]",,,> 10,IC50 ([5]; read-out: No Cofactor/ rel IC50): > 500 nM
50 to 500,> 500,50 to 500,"NC(=O)c1cncc(NC(=O)C(=O)N2CCC3C(CCCN3Cc3ccccc3)C2)c1 (centres unmarked) [Compound 412, 5-[2-(1-Benzyl-decahydro-1,6-naphthyridin-6-yl)-2-oxoacetamido]pyridine-3-carboxamide]",,,> 10,
50 to 500,> 500,> 500,"NC(=O)CC1CCC2CN(C(=O)C(=O)Nc3cncc(C(N)=O)c3)CCC2C1 (centres unmarked) [Compound 420, 5-{2-[6-(Carbamoylmethyl)-decahydroisoquinolin-2-yl]-2-oxoacetamido}pyridine-3-carboxamide]",,,> 10,
